According to the supplement of paper PMC10307832:

Assays:
Experiment in all cases: relative viability (nuclei count vs DMSO), 5 days (fraction); higher = more cells survive
Etoposide + Palbociclib = compound: COc1cc([C@@H]2c3cc4c(cc3[C@@H](O[C@@H]3O[C@@H]5CO[C@@H](C)O[C@H]5[C@H](O)[C@H]3O)[C@H]3COC(=O)[C@H]23)OCO4)cc(OC)c1O [Etoposide] + CC(=O)c1c(C)c2cnc(Nc3ccc(N4CCNCC4)cn3)nc2n(C2CCCC2)c1=O [Palbociclib] (partner 0.5 µM)
Procedure, shortened: (§1)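 Dosing by pin tool came one day after lung cancer cell lines were seeded in 1536-well plates, using either one drug or a fixed anchor-drug dose plus five library-drug doses (not always all listed) in √10 steps. After 5 days, nuclei were counted on 4× images. Relative viability is treated-well nuclei count divided by vehicle-well nuclei count, and values are medians of duplicate plates.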

Bleomycin + Crizotinib = compound: CC1=C(N=C(N=C1N)[C@H](CC(=O)N)NC[C@@H](C(=O)N)N)C(=O)N[C@@H]([C@H](C2=CN=CN2)OC3C(C(C(C(O3)CO)O)O)OC4C(C(C(C(O4)CO)O)OC(=O)N)O)C(=O)N[C@H](C)[C@H]([C@H](C)C(=O)N[C@@H]([C@@H](C)O)C(=O)NCCC5=NC(=CS5)C6=NC(=CS6)C(=O)NCCC[S+](C)C)O [Bleomycin] + C[C@@H](Oc1cc(-c2cnn(C3CCNCC3)c2)cnc1N)c1c(Cl)ccc(F)c1Cl [Crizotinib] (partner 1 µM); details: main component drawn
Procedure, shortened: as §1

Bleomycin + Linsitinib = compound: CC1=C(N=C(N=C1N)[C@H](CC(=O)N)NC[C@@H](C(=O)N)N)C(=O)N[C@@H]([C@H](C2=CN=CN2)OC3C(C(C(C(O3)CO)O)O)OC4C(C(C(C(O4)CO)O)OC(=O)N)O)C(=O)N[C@H](C)[C@H]([C@H](C)C(=O)N[C@@H]([C@@H](C)O)C(=O)NCCC5=NC(=CS5)C6=NC(=CS6)C(=O)NCCC[S+](C)C)O [Bleomycin] + C[C@]1(O)C[C@@H](c2nc(-c3ccc4ccc(-c5ccccc5)nc4c3)c3c(N)nccn32)C1 [Linsitinib] (partner 1 µM); details: main component drawn
Procedure, shortened: as §1

Etoposide + Decitabine = compound: COc1cc([C@@H]2c3cc4c(cc3[C@@H](O[C@@H]3O[C@@H]5CO[C@@H](C)O[C@H]5[C@H](O)[C@H]3O)[C@H]3COC(=O)[C@H]23)OCO4)cc(OC)c1O [Etoposide] + Nc1ncn([C@H]2C[C@H](O)[C@@H](CO)O2)c(=O)n1 [Decitabine] (partner 2 µM)
Procedure, shortened: as §1

Row | Cell Line | relative viability (Etoposide + Palbociclib; first compound 0.01 µM) | relative viability (Etoposide + Palbociclib; first compound 0.03162 µM) | relative viability (Etoposide + Palbociclib; first compound 0.1 µM) | relative viability (Etoposide + Palbociclib; first compound 0.3162 µM) | relative viability (Etoposide + Palbociclib; first compound 1 µM) | relative viability (Bleomycin + Crizotinib; first compound 0.01 µM) | relative viability (Bleomycin + Crizotinib; first compound 0.03162 µM) | relative viability (Bleomycin + Crizotinib; first compound 0.1 µM) | relative viability (Bleomycin + Crizotinib; first compound 0.3162 µM) | relative viability (Bleomycin + Crizotinib; first compound 1 µM) | relative viability (Bleomycin + Linsitinib; first compound 0.01 µM) | relative viability (Bleomycin + Linsitinib; first compound 0.03162 µM) | relative viability (Bleomycin + Linsitinib; first compound 0.1 µM) | relative viability (Bleomycin + Linsitinib; first compound 0.3162 µM) | relative viability (Bleomycin + Linsitinib; first compound 1 µM) | relative viability (Etoposide + Decitabine; first compound 0.01 µM) | relative viability (Etoposide + Decitabine; first compound 0.03162 µM) | relative viability (Etoposide + Decitabine; first compound 0.1 µM) | relative viability (Etoposide + Decitabine; first compound 0.3162 µM) | relative viability (Etoposide + Decitabine; first compound 1 µM)
1 | HCC-44 | 0.99 | 0.94 | 1.02 | 0.947 | 0.701 | 0.484 | 0.256 | 0.223 | 0.152 | 0.138 | 0.462 | 0.283 | 0.26 | 0.176 | 0.178 | 1 | 1.06 | 0.984 | 0.905 | 0.55
2 | HCC-78 | 0.403 | 0.522 | 0.534 | 0.402 | 0.378 | 0.31 | 0.294 | 0.297 | 0.229 | 0.267 | 0.488 | 0.343 | 0.343 | 0.282 | 0.179 | 0.669 | 0.697 | 0.429 | 0.317 | 0.265
3 | HCC-366 | 0.341 | 0.375 | 0.257 | 0.071 | 0.0568 | 0.152 | 0.137 | 0.0986 | 0.0238 | 0.0225 | 0.29 | 0.229 | 0.171 | 0.0412 | 0.0312 | 0.357 | 0.334 | 0.189 | 0.102 | 0.0877
4 | HCC-827 | 0.418 | 0.475 | 0.341 | 0.161 | 0.156 | 0.872 | 0.95 | 0.831 | 0.635 | 0.274 | 0.943 | 1.02 | 0.88 | 0.666 | 0.308 | 0.294 | 0.328 | 0.315 | 0.205 | 0.182
5 | HOP-62 | 0.408 | 0.478 | 0.464 | 0.356 | 0.273 | 0.531 | 0.477 | 0.325 | 0.144 | 0.106 | 0.485 | 0.554 | 0.335 | 0.135 | 0.112 | 0.227 | 0.199 | 0.212 | 0.207 | 0.179
6 | IA-LM |  |  |  |  |  | 0.502 | 0.64 | 0.476 | 0.523 | 0.29 | 0.588 | 0.476 | 0.344 | 0.293 | 0.246 |  |  |  |  | 
7 | LC-2-ad | 0.52 | 0.509 | 0.557 | 0.455 | 0.452 | 0.428 | 0.404 | 0.326 | 0.226 | 0.275 | 0.725 | 0.691 | 0.352 | 0.178 | 0.118 | 0.778 | 0.682 | 0.922 | 0.741 | 0.566
8 | NCI-H522 | 0.926 | 0.988 | 0.849 | 1.16 | 0.797 |  |  |  |  |  |  |  |  |  |  | 0.702 | 0.655 | 0.502 | 0.872 | 0.571
9 | NCI-H596 |  |  |  |  |  | 0.896 | 0.661 | 0.558 | 0.409 | 0.475 | 0.79 | 0.73 | 0.554 | 0.442 | 0.43 | 0.826 | 1.05 | 1.09 | 1.01 | 0.857
10 | NCI-H1299 |  |  |  |  |  | 0.896 | 0.943 | 0.715 | 0.402 | 0.331 | 0.879 | 0.978 | 0.854 | 0.481 | 0.245 |  |  |  |  | 
11 | NCI-H1395 | 0.625 | 0.595 | 0.555 | 0.638 | 0.545 |  |  |  |  |  | 0.715 | 0.843 | 0.666 | 0.626 | 0.391 | 0.726 | 0.755 | 0.681 | 0.667 | 0.653
12 | NCI-H1563 |  |  |  |  |  | 0.714 | 0.694 | 0.723 | 0.594 | 0.518 | 0.919 | 0.891 | 0.749 | 0.642 | 0.623 |  |  |  |  | 
13 | NCI-H1648 |  | 0.289 | 0.211 | 0.297 | 0.265 |  |  |  |  |  |  |  |  |  |  |  | 0.513 | 0.454 | 0.466 | 0.341
14 | NCI-H1650 | 0.376 | 0.36 | 0.26 | 0.199 | 0.168 | 0.397 | 0.311 | 0.258 | 0.16 | 0.172 |  |  |  |  |  | 0.346 | 0.314 | 0.355 | 0.195 | 0.182
15 | NCI-H1703 |  |  |  |  |  | 0.751 | 0.655 | 0.676 | 0.322 | 0.195 | 1.06 | 0.639 | 0.517 | 0.321 | 0.19 |  |  |  |  | 
16 | NCI-H1793 |  | 0.321 | 0.2 | 0.305 | 0.29 |  |  |  |  |  | 0.943 | 0.762 | 0.719 | 0.276 | 0.249 |  | 0.497 | 0.454 | 0.345 | 0.236
17 | NCI-H2170 | 0.382 | 0.427 |  | 0.36 | 0.319 | 0.996 | 1.19 | 1.12 | 0.662 | 0.624 |  |  |  |  |  | 0.463 | 0.449 |  | 0.386 | 0.342
18 | NCI-H2228 | 0.705 | 0.765 | 0.435 | 0.32 | 0.145 | 0.393 | 0.362 | 0.488 | 0.318 | 0.327 | 0.675 | 0.647 | 0.714 | 0.559 | 0.4 |  |  |  |  | 
19 | NCI-H2342 | 0.463 | 0.542 | 0.423 | 0.425 | 0.331 |  |  |  |  |  |  |  |  |  |  | 0.599 | 0.677 | 0.477 | 0.373 | 0.368
20 | SW 900 | 0.585 | 0.503 | 0.593 | 0.492 | 0.263 |  |  |  |  |  |  |  |  |  |  | 0.443 | 0.428 | 0.361 | 0.297 | 0.269
